test system: Escherichia coli (E. coli); experiment: Antibacterial test according to JIS Z2801 using E. coli (film surface not wiped with alcohol); type: cell-based; conditions: judgement in the text
Procedure: For example, in an antibacterial test according to JIS Z2801, a predetermined amount of Escherichia coli (E. coli) or the like is added to a 1/500 nutrient broth. The nutrient broth is dropped onto the surface of the film of a 4 cm square, and is covered with a polyethylene film. The sample is placed at 35° C. After 24 hours, the surface of the freshness-retentive film is washed to recover the nutrient broth. The number of bacterial cells is measured with a nutrient agar. In this test method, alkyldiethanolamine should be diffused in the nutrient broth (solution) in a concentration of 30 ppm or more.
An antibacterial test was performed using Escherichia coli (E. coli) according to JIS Z2801. To keep the state of the surface of the freshness-retentive film, the surface thereof was not wiped with alcohol.
Predetermined amounts of Escherichia coli (E. coli), Staphylococcus aureus, Salmonella, and Vibrio parahaemolyticus (broth (0.4 cc) used in a JIS test) were added to a 1/500 nutrient broth. The nutrient broth was dropped onto the surface of a freshness-retentive film of a 4 cm square, and was covered with a polyethylene film. The film was placed at 35° C., and after 24 hours, the surface of the freshness-retentive film was washed. The washing liquid containing the nutrient broth was recovered, and was cultured on a nutrient agar. The number of colonies was counted.
Since the number of bacterial cells is difficult to count under a microscope, the number of colonies was visually counted. The number of colonies per gram (g) was defined as the number of living bacterial cells CFU (colony forming unit) (unit: [colonies/g]). A sample sandwiched between two polyethylene films was used as a control (Control) for comparison. In Tables, the averages at n=1 to 3 are also shown. If a fluctuation in the measured values is 10 times or more, the average is not calculated according to the JIS specification.
An antibacterial test was performed in the same manner as in Experiment 1.
An antibacterial test was performed in the same manner as in Experiment 1. […]

Compound	antibacterial characteristics against E. coli (in words)
CCCCCCCCCCCCCCCCCC(=O)OCC(O)CO (stereo not drawn) [glycerol monostearate]	inhibits the antibacterial activity of stearyldiethanolamine
CCCCCCCCCCCCCCCCCCN(CCO)CCO [stearyldiethanolamine]	significantly superior to those of stearyldiethanolamine monostearate
diglycerol monopalmitate	does not inhibit the antibacterial activity of stearyldiethanolamine

— patent US20210120812A1, “FRESHNESS-RETENTIVE FILM” (MITSUI CHEMICALS TOHCELLO, INC., priority 2013, published 2021)
